The values that follow come from US20200361895A1, “NOVEL SULFONAMIDE CARBOXAMIDE COMPOUNDS” (Inflazome Limited, priority 2017, published 2020).

Where a name gives a salt, the structure may show the parent alone.

This assay deals with NLRP3 (Homo sapiens, UniProt Q96P20). As to the kind of experiment: THP-1 cells pyroptosis assay (LPS + nigericin, resazurin readout; THP IC50). It counts as cell-based. Also noted: Seed THP-1 cells (25,000 cells/well) containing 1.0 μg/ml LPS in 40 μl of RPMI medium; host or cells: THP-1 cells. Here is the method: THP-1 cells (ATCC #TIB-202) were grown in RPMI containing L-glutamine (Gibco #11835) supplemented with 1 mM sodium pyruvate (Sigma #S8636) and penicillin (100 units/ml)/streptomycin (0.1 mg/ml) (Sigma #P4333) in 10% Fetal Bovine Serum (FBS) (Sigma #F0804). The cells were routinely passaged and grown to confluency (˜10^6 cells/ml). On the day of the experiment, THP-1 cells were harvested and resuspended into RPMI medium (without FBS). The cells were then counted and viability (>90%) checked by Trypan blue (Sigma #T8154). Appropriate dilutions were made to give a concentration of 625,000 cells/ml. To this diluted cell solution was added LPS (Sigma #L4524) to give a 1 μg/ml Final Assay Concentration (FAC). 40 μl of the final preparation was aliquoted into each well of a 96-well plate. The plate thus prepared was used for compound screening.
The following method step-by-step assay was followed for compound screening. • 1. Seed THP-1 cells (25,000 cells/well) containing 1.0 μg/ml LPS in 40 μl of RPMI medium (without FBS) in 96-well, black walled, clear bottom cell culture plates coated with poly-D-lysine (VWR #734-0317) • 2. Add 5 μcompound (8 points half-log dilution, with 10 μM top dose) or vehicle (DMSO 0.1% FAC) to the appropriate wells • 3. Incubate for 3 hrs at 37° C. and 5% CO2 • 4. Add 5 μnigericin (Sigma #N7143) (FAC 5 μM) to all wells • 5. Incubate for 1 hr at 37° C. and 5% CO2 • 6. At the end of the incubation period, spin plates at 300×g for 3 mins and remove supernatant • 7. Then add 50 μl of resazurin (Sigma #R7017) (FAC 100 μM resazurin in RPMI medium without FBS) and incubate plates for a further 1-2 hrs at 37° C. and 5% CO2 • 8. Plates were read in an Envision reader at Ex 560 nm and Em 590 nm • 9. IC50 data is fitted to a non-linear regression equation (log inhibitor vs response-variable slope 4-parameters)
(The colour change of resazurin is a common sign of viable cells or microbes.)

Sequence of NLRP3 (Q96P20 whole entry): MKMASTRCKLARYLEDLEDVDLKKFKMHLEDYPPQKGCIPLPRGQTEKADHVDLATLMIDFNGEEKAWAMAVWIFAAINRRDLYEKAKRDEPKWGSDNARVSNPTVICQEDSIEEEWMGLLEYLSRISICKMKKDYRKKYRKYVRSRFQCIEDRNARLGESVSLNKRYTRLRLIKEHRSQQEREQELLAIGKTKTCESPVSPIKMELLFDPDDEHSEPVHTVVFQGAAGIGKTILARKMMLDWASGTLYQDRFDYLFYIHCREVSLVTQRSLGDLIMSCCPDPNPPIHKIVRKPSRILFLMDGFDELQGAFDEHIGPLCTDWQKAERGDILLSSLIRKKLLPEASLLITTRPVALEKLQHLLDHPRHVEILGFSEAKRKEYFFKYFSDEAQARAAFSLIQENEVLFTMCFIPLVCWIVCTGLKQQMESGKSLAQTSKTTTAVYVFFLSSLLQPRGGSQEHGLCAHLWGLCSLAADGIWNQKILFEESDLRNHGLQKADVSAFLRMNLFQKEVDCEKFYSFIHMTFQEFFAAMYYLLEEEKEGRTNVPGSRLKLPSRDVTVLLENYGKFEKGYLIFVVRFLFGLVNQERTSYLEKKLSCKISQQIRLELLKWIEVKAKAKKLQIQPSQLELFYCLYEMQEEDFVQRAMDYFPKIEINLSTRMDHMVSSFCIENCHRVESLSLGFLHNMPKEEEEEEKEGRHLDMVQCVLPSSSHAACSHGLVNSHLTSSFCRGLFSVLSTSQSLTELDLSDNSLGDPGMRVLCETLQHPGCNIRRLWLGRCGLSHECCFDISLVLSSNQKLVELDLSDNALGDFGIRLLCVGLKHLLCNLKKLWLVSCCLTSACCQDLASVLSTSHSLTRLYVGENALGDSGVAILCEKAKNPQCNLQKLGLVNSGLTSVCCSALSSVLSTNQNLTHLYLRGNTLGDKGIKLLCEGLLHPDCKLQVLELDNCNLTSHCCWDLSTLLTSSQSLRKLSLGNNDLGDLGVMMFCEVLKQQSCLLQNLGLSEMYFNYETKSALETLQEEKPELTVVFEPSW

What is called IC50 is the midpoint of a concentration-inhibition curve. Regarding `CC(C)c1cc(F)cc(-c2ccnc(C(N)=O)c2)c1NC(=O)NS(=O)(=O)c1cc(CN(C)C)n(C)n1` [Example 67, 4-(2-(3-((5-((Dimethylamino)methyl)-1-methyl-1H-pyrazol-3-yl)sulfonyl)ureido)-5-fluoro-3-isopropylphenyl)picolinamide], the IC50 was ≤ 5 µM.
As for `CC(C)c1cc(F)cc(-c2ccnc(C#N)c2)c1NC(=O)NS(=O)(=O)C1CN(C(C)C)C1` [Example 74, N-((2-(2-Cyanopyridin-4-yl)-4-fluoro-6-isopropylphenyl)carbamoyl)-1-isopropylazetidine-3-sulfonamide], the IC50 was ≤ 10 µM.
Take `COc1cc(-c2cc(F)cc(C(C)C)c2NC(=O)NS(=O)(=O)C2CN(C(C)C)C2)ccn1` [Example 75, N-((4-Fluoro-2-isopropyl-6-(2-methoxypyridin-4-yl)phenyl)carbamoyl)-1-isopropylazetidine-3-sulfonamide]: the IC50 is ≤ 0.5 µM.
As for `CC(C)c1cc(F)cc(-c2ccnc(C#N)c2)c1NC(=O)NS(=O)(=O)C1CN(C2CCC2)C1` [Example 78, N-((2-(2-Cyanopyridin-4-yl)-4-fluoro-6-isopropylphenyl)carbamoyl)-1-cyclobutylazetidine-3-sulfonamide], the figure is ≤ 10 µM; as for `COc1cc(-c2cc(F)cc(C(C)C)c2NC(=O)NS(=O)(=O)C2CN(C3CCC3)C2)ccn1` [Example 79, 1-Cyclobutyl-N-((4-fluoro-2-isopropyl-6-(2-methoxypyridin-4-yl)phenyl)carbamoyl)azetidine-3-sulfonamide], ≤ 0.5 µM; as for `COc1cc(-c2ccc3c(c2NC(=O)NS(=O)(=O)C2CN(C4CCC4)C2)CCC3)ccn1` [Example 80, 1-Cyclobutyl-N-((5-(2-methoxypyridin-4-yl)-2,3-dihydro-1H-inden-4-yl)carbamoyl)azetidine-3-sulfonamide], ≤ 0.5 µM.
As for `CCN1CC(S(=O)(=O)NC(=O)Nc2c(-c3ccnc(C#N)c3)cc(F)cc2C(C)C)C1` [Example 82, N-((2-(2-Cyanopyridin-4-yl)-4-fluoro-6-isopropylphenyl)carbamoyl)-1-ethylazetidine-3-sulfonamide], the figure is ≤ 10 µM; as for `CCN1CC(S(=O)(=O)NC(=O)Nc2c(-c3ccncc3)cc(F)c3c2CCC3)C1` [Example 85, 1-Ethyl-N-((7-fluoro-5(pyridin-4-yl)-2,3-dihydro-1H-inden-4-yl)carbamoyl)azetidine-3-sulfonamide], ≤ 1 µM; as for `CC(C)c1cc(F)cc(-c2ccnc(C#N)c2)c1NC(=O)NS(=O)(=O)C1CN(Cc2cccnc2)C1` [Example 86, N-((2-(2-Cyanopyridin-4-yl)-4-fluoro-6-isopropylphenyl)carbamoyl)-1-(pyridin-3-ylmethyl)azetidine-3-sulfonamide], ≤ 10 µM.
`O=C(Nc1c(-c2ccncc2)cc(F)c2c1CCC2)NS(=O)(=O)C1CN(Cc2cccnc2)C1` [Example 88, N-((7-Fluoro-5-(pyridin-4-yl)-2,3-dihydro-1H-inden-4-yl)carbamoyl)-1-(pyridin-3-ylmethyl)azetidine-3-sulfonamide]: the IC50 is ≤ 1 µM.
As for `CC(C)c1cc(F)cc(-c2ccnc(C#N)c2)c1NC(=O)NS(=O)(=O)c1ccc(=O)n(C(C)C)c1` [Example 89, N-((2-(2-cyanopyridin-4-yl)-4-fluoro-6-isopropylphenyl)carbamoyl)-1-isopropyl-6-oxo-1,6-dihydropyridine-3-sulfonamide], the figure is ≤ 0.5 µM; as for `COc1cc(-c2cc(F)cc(C(C)C)c2NC(=O)NS(=O)(=O)c2ccc(=O)n(C(C)C)c2)ccn1` [Example 90, N-((4-Fluoro-2-isopropyl-6-(2-methoxypyridin-4-yl)phenyl)carbamoyl)-1-isopropyl-6-oxo-1,6-dihydropyridine-3-sulfonamide], ≤ 0.5 µM; as for `CC(C)c1cc(F)cc(-c2cccnc2)c1NC(=O)NS(=O)(=O)C1CCN(C(C)C)CC1` [Example 93, N-((4-Fluoro-2-isopropyl-6-(pyridin-3-yl)phenyl)carbamoyl)-1-isopropylpiperidine-4-sulfonamide], ≤ 10 µM.
As for `CCN1CCC(S(=O)(=O)NC(=O)Nc2c(-c3ccnc(OC)c3)cc(F)c3c2CCC3)CC1` [Example 97, 1-Ethyl-N-((7-fluoro-5-(2-methoxypyridin-4-yl)-2,3-dihydro-1H-inden-4-yl)carbamoyl)piperidine-4-sulfonamide, potassium salt], the figure is ≤ 5 µM; as for `CCN1CCC(S(=O)(=O)NC(=O)Nc2c(-c3ccnc(C#N)c3)ccc3c2CCC3)CC1` [Example 99, N-((5-(2-Cyanopyridin-4-yl)-2,3-dihydro-1H-inden-4-yl)carbamoyl)-1-ethylpiperidine-4-sulfonamide, potassium salt], ≤ 10 µM.
For `CCN1CCC(S(=O)(=O)NC(=O)Nc2c(-c3ccnc(OC)c3)cc(F)cc2C(C)C)CC1` [Example 100, 1-Ethyl-N-((4-fluoro-2-isopropyl-6-(2-methoxypyridin-4-yl)phenyl)carbamoyl)piperidine-4-sulfonamide, potassium salt], the IC50 was ≤ 5 µM.
As to `CC(C)c1cc(F)cc(-c2ccnc(C#N)c2)c1NC(=O)NS(=O)(=O)c1cncc(N(C)C)n1` [Example 102, N-((2-(2-Cyanopyridin-4-yl)-4-fluoro-6-isopropylphenyl)carbamoyl)-6-(dimethylamino)pyrazine-2-sulfonamide], the IC50 is ≤ 0.5 µM.
For the molecule `COc1cc(-c2cc(F)cc(C(C)C)c2NC(=O)NS(=O)(=O)c2cnc(N(C)C)cn2)ccn1` [Example 107, 5-(Dimethylamino)-N-((4-fluoro-2-isopropyl-6-(2-methoxypyridin-4-yl)phenyl)carbamoyl)pyrazine-2-sulfonamide], the half-inhibitory concentration (IC50) was ≤ 0.5 µM.
As for `CC(C)c1cc(F)cc(-c2ccnc(C#N)c2)c1NC(=O)NS(=O)(=O)c1nccnc1C(F)F` [Example 110, N-((2-(2-Cyanopyridin-4-yl)-4-fluoro-6-isopropylphenyl)carbamoyl)-3-(difluoromethyl)pyrazine-2-sulfonamide], the figure is ≤ 10 µM.
Regarding `COc1cc(-c2cc(F)cc(C(C)C)c2NC(=O)NS(=O)(=O)c2nccnc2C(F)F)ccn1` [Example 111, 3-(Difluoromethyl)-N-((4-fluoro-2-isopropyl-6-(2-methoxypyridin-4-yl)phenyl)carbamoyl)pyrazine-2-sulfonamide], the IC50 is ≤ 5 µM.
Take `COc1cc(-c2ccc3c(c2NC(=O)NS(=O)(=O)c2nccnc2C(F)F)CCC3)ccn1` [Example 112, 3-(Difluoromethyl)-N-((5-(2-methoxypyridin-4-yl)-2,3-dihydro-1H-inden-4-yl)carbamoyl)pyrazine-2-sulfonamide]: the IC50 was ≤ 1 µM.
As for `O=C(Nc1c(-c2ccncc2)cc(F)c2c1CCC2)NS(=O)(=O)c1nccnc1C(F)F` [Example 113, 3-(Difluoromethyl)-N-((7-fluoro-5-(pyridin-4-yl)-2,3-dihydro-1H-inden-4-yl)carbamoyl)pyrazine-2-sulfonamide], the figure is ≤ 5 µM.
In the case of `COc1cc(-c2cc(F)cc(C(C)C)c2NC(=O)NS(=O)(=O)c2nc(C)cc(C)n2)ccn1` [Example 115, N-((4-Fluoro-2-isopropyl-6-(2-methoxypyridin-4-yl)phenyl)carbamoyl)-4,6-dimethylpyrimidine-2-sulfonamide], the IC50 was ≤ 0.5 µM.
As to `CC(C)c1cc(F)cc(-c2ccnc(C#N)c2)c1NC(=O)NS(=O)(=O)Cc1ccccc1` [Example 127, N-((2-(2-Cyanopyridin-4-yl)-4-fluoro-6-isopropylphenyl)carbamoyl)-1-phenylmethanesulfonamide], the IC50 is ≤ 10 µM.
In the case of `COc1cc(-c2cc(F)cc(C(C)C)c2NC(=O)NS(=O)(=O)Cc2ccccc2)ccn1` [Example 128, N-((4-Fluoro-2-isopropyl-6-(2-methoxypyridin-4-yl)phenyl)carbamoyl)-1-phenylmethanesulfonamide], the IC50 is ≤ 1 µM.
In the case of `COc1cc(-c2ccc3c(c2NC(=O)NS(=O)(=O)Cc2ccccc2)CCC3)ccn1` [Example 129, N-((5-(2-Methoxypyridin-4-yl)-2,3-dihydro-1H-inden-4-yl)carbamoyl)-1-phenylmethanesulfonamide], the IC50 was ≤ 5 µM.
As for `O=C(Nc1c(-c2ccncc2)cc(F)c2c1CCC2)NS(=O)(=O)Cc1ccccc1` [Example 130, N-((7-Fluoro-5-(pyridin-4-yl)-2,3-dihydro-1H-inden-4-yl)carbamoyl)-1-phenylmethanesulfonamide], the figure is ≤ 5 µM.
As for `CC(C)CS(=O)(=O)NC(=O)Nc1c(-c2ccnc(C#N)c2)cc(F)cc1C(C)C` [Example 131, N-((2-(2-Cyanopyridin-4-yl)-4-fluoro-6-isopropylphenyl)carbamoyl)-2-methylpropane-1-sulfonamide], the figure is ≤ 10 µM.
